Among the test systems are SK-MEL-2; NCI-H23; SF-268; Hs-578T; SF-295; NCI-H460; UO-31; MDA-N; U-251; SR; SK-MEL-28; RPMI-8226; MDA-MB-231; 786-0; CCRF-CEM; A549; BT-549; SNB-19; A498; DU-145.
Experiment in all cases: growth of human tumour cells (NCI), 48 h

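Results reflect a 48-hour exposure of cells in 96-well plates to compound at five concentrations. GI50 marks 50% less growth.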 The source made the active and inactive calls. Rule as the data show it: active = GI50 up to about 1.1 µM and inactive = higher. Where only a bound is given, the exact number is not on record here.

As for `NC(Cc1ccccc1)P(=O)(O)O` (stereo not given), the GI50 with SK-MEL-2, with NCI-H23, in the assay on SF-268, in the assay with Hs-578T, in the assay with SF-295 and in the assay on NCI-H460 was > 100 µM (inactive) in each case. In addition, the GI50 in the assay with UO-31, in the assay on MDA-N, in the assay with U-251, in the assay on SR, with SK-MEL-28 and with RPMI-8226 was > 100 µM (inactive) throughout. In addition, the GI50 in the assay on MDA-MB-231, in the assay on 786-0, with CCRF-CEM, in the assay with A549, in the assay on BT-549 and with SNB-19 was > 100 µM (inactive) in each case. For the same compound, in the assay with A498, the GI50 was > 100 µM (inactive).

With `O=c1c2ccccc2c2ccccc2c(=O)n1-c1cc2c3ccccc3ccc2c2ccccc12`, the GI50 in the assay with DU-145, with SK-MEL-2, in the assay on NCI-H23, in the assay with SF-268, in the assay with Hs-578T and in the assay on SF-295 was > 100 µM (inactive) in each case. Also, the GI50 in the assay on NCI-H460 is > 100 µM (inactive); in the assay with UO-31, > 100 µM (inactive); with MDA-N, > 100 µM (inactive); with U-251 it was > 100 µM (inactive); in the assay with SK-MEL-28, > 100 µM (inactive); in the assay with RPMI-8226 it was 60.3 µM (inactive). Moreover, the GI50 in the assay with MDA-MB-231, with 786-0, with A549, in the assay on BT-549, in the assay with SNB-19 and with A498 was > 100 µM (inactive) each time.

As for `c1ccc(CSC2(SCc3ccccc3)CCCCC2)cc1`, the GI50 in the assay on DU-145, with SK-MEL-2, with NCI-H23, in the assay on SF-268, with Hs-578T and in the assay on SF-295 was > 10 µM (inactive) throughout. Also, the GI50 in the assay on NCI-H460, in the assay on UO-31, in the assay on MDA-N, in the assay with U-251, in the assay on SR and in the assay on SK-MEL-28 was > 10 µM (inactive) each time. Also, the GI50 in the assay on RPMI-8226, with MDA-MB-231, in the assay with 786-0, with CCRF-CEM, in the assay on A549 and in the assay with SNB-19 was > 10 µM (inactive) in each case. Also, the GI50 in the assay with A498 was > 10 µM (inactive).

In the case of `CCC1(c2ccc(OC)c(OC)c2)CCN(S(=O)(=O)c2ccc(C)cc2)C1` (stereo not given), the GI50 in the assay on DU-145 is > 100 µM (inactive); in the assay with SK-MEL-2 it was > 100 µM (inactive); with NCI-H23 it was > 100 µM (inactive); in the assay on SF-268, > 100 µM (inactive); with SF-295, > 100 µM (inactive); with NCI-H460 it was 64 µM (inactive). The GI50 in the assay on UO-31 is > 100 µM (inactive); in the assay with MDA-N, > 100 µM (inactive); with U-251, > 100 µM (inactive); with SR, > 10 µM (inactive); with SK-MEL-28 it was > 10 µM (inactive); in the assay with MDA-MB-231 it was > 100 µM (inactive). Besides, the GI50 in the assay with 786-0 is > 100 µM (inactive); in the assay on CCRF-CEM, > 100 µM (inactive); in the assay with A549 it was 62.8 µM (inactive); with BT-549, > 100 µM (inactive); in the assay with SNB-19 it was > 100 µM (inactive).

In the case of `COP(=O)(OC)OCN(C)CC/C=C(\C)CC/C=C(\C)CCC=C(C)C`, the GI50 was 14.9 µM (inactive) with SK-MEL-2; 17.2 µM (inactive) with NCI-H23; 16.4 µM (inactive) in the assay on SF-268; 16.6 µM (inactive) in the assay with SF-295; 11.7 µM (inactive) with NCI-H460; 14.1 µM (inactive) with UO-31. The GI50 with MDA-N was 14.9 µM (inactive); in the assay with U-251 it was 17.7 µM (inactive); with SK-MEL-28 it was 17.3 µM (inactive); in the assay on RPMI-8226, 10.6 µM (inactive); in the assay on MDA-MB-231, 20.2 µM (inactive); in the assay with 786-0 it was 15.1 µM (inactive). Besides, the GI50 is 10.4 µM (inactive) with CCRF-CEM; 16.9 µM (inactive) in the assay on A549; 16.4 µM (inactive) with BT-549; 10.4 µM (inactive) in the assay on SNB-19; > 100 µM (inactive) with A498.

As to `O=S(=O)(c1cc(Cl)ccc1Cl)N1CCN(S(=O)(=O)c2cc(Cl)ccc2Cl)CC1`, the GI50 in the assay on DU-145 is 16.1 µM (inactive); in the assay on SK-MEL-2 it was 0.403 µM (active); in the assay with NCI-H23, 4.86 µM (inactive); in the assay on SF-268 it was > 100 µM (inactive); with Hs-578T, 19.8 µM (inactive); in the assay with SF-295, > 100 µM (inactive). Further, the GI50 in the assay with NCI-H460, in the assay with UO-31, in the assay with MDA-N, with U-251, in the assay on SK-MEL-28 and in the assay on MDA-MB-231 was > 100 µM (inactive) in each case. The GI50 in the assay with 786-0, in the assay on A549, with BT-549, with SNB-19 and in the assay on A498 was > 100 µM (inactive) throughout.

For `CCO[C@]12CCC[C@H]1[C@@H]1C(=O)c3ccccc3C(=O)C1=C(C)O2`, the GI50 with DU-145 is 58.1 µM (inactive); in the assay on SK-MEL-2, > 100 µM (inactive); with NCI-H23, 98.2 µM (inactive); in the assay on SF-268, 30.8 µM (inactive); in the assay on Hs-578T, > 100 µM (inactive); in the assay on SF-295, 81.1 µM (inactive). For the same compound, the GI50 in the assay with NCI-H460 is > 100 µM (inactive); in the assay on UO-31, > 100 µM (inactive); with MDA-N it was 19.5 µM (inactive); with U-251, 36.3 µM (inactive); in the assay on SR it was 22.3 µM (inactive); with SK-MEL-28, > 100 µM (inactive). The GI50 with RPMI-8226 was 29.2 µM (inactive); with MDA-MB-231 it was > 100 µM (inactive); in the assay with 786-0, 29.2 µM (inactive); with CCRF-CEM, 33.5 µM (inactive); with A549 it was > 100 µM (inactive); in the assay on SNB-19, > 100 µM (inactive). Further, in the assay with A498, the GI50 is 76 µM (inactive).

Regarding `O=C(Oc1c(I)ccccc1=O)c1ccc([N+](=O)[O-])cc1`, the GI50 with DU-145 was 11.7 µM (inactive); in the assay on SK-MEL-2, 20.5 µM (inactive); in the assay on NCI-H23, 42.4 µM (inactive); with SF-268, 15.5 µM (inactive); in the assay on Hs-578T, 24.8 µM (inactive); with SF-295, 23.2 µM (inactive). The GI50 is 11.4 µM (inactive) in the assay on NCI-H460; 17.3 µM (inactive) with UO-31; 16.8 µM (inactive) in the assay on U-251; 4.34 µM (inactive) with SR; 8.09 µM (inactive) with SK-MEL-28; 23.2 µM (inactive) in the assay with RPMI-8226. Also, the GI50 with MDA-MB-231 is 23.3 µM (inactive); in the assay on 786-0, 26.9 µM (inactive); in the assay with CCRF-CEM, 22.5 µM (inactive); in the assay on A549 it was 21.6 µM (inactive); with BT-549 it was 18.6 µM (inactive); in the assay with SNB-19, 20.4 µM (inactive). Further, in the assay on A498, the GI50 is 0.409 µM (active).

Turning to `CC1CC(N2CCOCC2)=Nc2ccccc2N1Cc1ccccc1` (stereo not given), the GI50 in the assay with DU-145 was > 100 µM (inactive); in the assay with SK-MEL-2, > 100 µM (inactive); with NCI-H23, > 100 µM (inactive); with SF-268 it was 74 µM (inactive); with Hs-578T, 34.4 µM (inactive); in the assay with SF-295, 57.7 µM (inactive). Besides, the GI50 was > 100 µM (inactive) with NCI-H460; > 100 µM (inactive) in the assay on UO-31; > 100 µM (inactive) in the assay with U-251; 49.1 µM (inactive) with SK-MEL-28; 48.2 µM (inactive) in the assay with RPMI-8226; > 100 µM (inactive) in the assay on MDA-MB-231. The GI50 is > 100 µM (inactive) in the assay on 786-0; > 100 µM (inactive) in the assay on CCRF-CEM; > 100 µM (inactive) with A549; 66.2 µM (inactive) in the assay with BT-549; > 100 µM (inactive) in the assay with SNB-19; 20.5 µM (inactive) in the assay on A498.

Regarding `C=C1c2cc3c(cc2CC12Cc1cc4c(cc1C2=O)CCC4)CCC3` (stereo not given), the GI50 in the assay on DU-145, in the assay on SK-MEL-2, in the assay with NCI-H23, with SF-268, in the assay on Hs-578T and in the assay with SF-295 was > 100 µM (inactive) throughout. Further, the GI50 is > 100 µM (inactive) with NCI-H460; > 100 µM (inactive) with UO-31; > 100 µM (inactive) in the assay with MDA-N; > 100 µM (inactive) in the assay on U-251; 36.1 µM (inactive) with SR; > 100 µM (inactive) with SK-MEL-28. In addition, the GI50 with RPMI-8226, in the assay on MDA-MB-231, with 786-0, with CCRF-CEM, in the assay on A549 and in the assay on SNB-19 was > 100 µM (inactive) in each case. In the assay with A498, the GI50 is > 100 µM (inactive).

With `NCCO/C=C/C(N)C(=O)O` (stereo not given) [AMINOETHOXYVINYLGLYCINE], the GI50 in the assay with DU-145, in the assay with SK-MEL-2, in the assay with NCI-H23, in the assay on SF-268, with Hs-578T and with SF-295 was > 100 µM (inactive) each time. In addition, the GI50 in the assay with NCI-H460, with UO-31, with MDA-N, with U-251, in the assay with SK-MEL-28 and in the assay on RPMI-8226 was > 100 µM (inactive) throughout. Further, the GI50 in the assay on MDA-MB-231, in the assay on 786-0, with CCRF-CEM, in the assay on A549, in the assay on BT-549 and with SNB-19 was > 100 µM (inactive) throughout.

For the origin of these results see ChEMBL document CHEMBL1201862, “PubChem BioAssay data set” (2004).
